Data taken from US8445523B2, “Dioxo-imidazolidine derivatives, which inhibit the enzyme SOAT-1, and pharmaceutical and cosmetic compositions containing them” (Galderma Research & Development, priority 2009, dated 2013).

The molecules below were run against T1, enzyme ACAT-1 (Homo sapiens, UniProt P35610) (assay: HepG2 NBD-cholesterol fluorescence test of inhibitory activity towards ACAT-1 (SOAT-1)). Conditions: HepG2 cells, NBD-cholesterol 1 μg/ml, incubation 6 hours at 37° C., fluorescence read (490/540 nm).
T1 construct: endogenous in cells; host or cells: HepG2
T1 sequence (P35610 1-550): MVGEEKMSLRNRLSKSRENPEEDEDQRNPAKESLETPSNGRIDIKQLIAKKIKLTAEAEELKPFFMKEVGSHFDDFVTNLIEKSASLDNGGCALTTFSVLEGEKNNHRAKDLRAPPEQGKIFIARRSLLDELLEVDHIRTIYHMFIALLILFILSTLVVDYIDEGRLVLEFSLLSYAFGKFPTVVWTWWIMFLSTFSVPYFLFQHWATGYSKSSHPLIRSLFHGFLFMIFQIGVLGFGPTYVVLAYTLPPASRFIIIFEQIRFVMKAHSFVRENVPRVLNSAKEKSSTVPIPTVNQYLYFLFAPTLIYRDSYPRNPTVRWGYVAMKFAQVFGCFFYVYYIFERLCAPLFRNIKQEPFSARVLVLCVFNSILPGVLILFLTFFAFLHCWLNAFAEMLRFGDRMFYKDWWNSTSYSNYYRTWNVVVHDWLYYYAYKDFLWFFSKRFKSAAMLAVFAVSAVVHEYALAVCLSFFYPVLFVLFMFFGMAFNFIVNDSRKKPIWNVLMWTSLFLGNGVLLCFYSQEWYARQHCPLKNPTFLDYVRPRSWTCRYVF
Format: cell-based
Method: The compounds (I) according to the invention, and also the pharmaceutically acceptable salts, solvates and/or hydrates thereof, have inhibitory properties on the enzyme SOAT-1. This inhibitory activity on the enzyme SOAT-1 is measured according to a HepG2 primary enzymatic test, as described in Example 11.
The compounds of formula (I) according to the invention were subjected to a test for evaluating their inhibitory activity towards the enzyme ACAT-1, inspired by the following publication: “Identification of ACAT1- and ACAT2-specific inhibitors using a novel, cell based fluorescence assay: individual ACAT uniqueness”, J. Lipid. Res. (2004) vol. 45, pages 378-386.
The principle of this test is based on the use of NBD-cholesterol, a cholesterol analogue whose fluorescence depends on its environment. When this molecule is in a polar environment, it is weakly fluorescent, whereas in a non-polar environment, it is strongly fluorescent. Free NBD-cholesterol becomes inserted in cell membranes and is weakly fluorescent in this polar environment. When NBD-cholesterol is esterified with ACAT, the NBD-cholesterol ester enters non-polar lipid droplets and is then strongly fluorescent.
The method below is applied: HepG2 cells are incubated in the presence of NBD-cholesterol (1 μg/ml) and of the test compound of formula (I) in black transparent-bottomed 96-well plates, at a rate of 30 000 cells per well. After incubation for 6 hours at 37° C. under 5% CO2, the medium is removed by turning upside-down and the cells are washed with twice 100 μl of PBS. After addition of 50 μl of lysis buffer (10 mM NaPO4, 1% Igepal), the plates are shaken for 5 minutes and the fluorescence is read (excitation at 490 nm, emission at 540 nm) on a Fusion machine (Perkin-Elmer).

SMILES | IC50 [nM]
Cc1cnc(N2C(=O)N(CC(=O)Nc3c(C(C)C)cccc3C(C)C)C(=O)C23CCCCC3)cn1 [compound (3)] | 5.5
CC(C)c1cccc(C(C)C)c1NC(=O)CN1C(=O)N(c2cccnc2)C2(CCCCC2)C1=O [compound (1)] | 9

Other lines, results leading:

IC50 [nM] | SMILES
3 | COc1ccc(N2C(=O)N(CC(=O)Nc3c(C(C)C)cccc3C(C)C)C(=O)C23CCCCC3)cn1 [compound (2)]
79 | Cc1ccc(N2C(=O)N(CC(=O)Nc3c(C(C)C)cccc3C(C)C)C(=O)C23CCOCC3)cn1 [compound (5)]
0.6 | Cc1ccc(N2C(=O)N(CC(=O)Nc3c(C(C)C)cccc3C(C)C)C(=O)C23CCCCC3)cn1 [compound (4), N-(2,6-Diisopropylphenyl)-2-[1-(6-methyl-pyridin-3-yl)-2,4-dioxo-1,3-diazaspiro[4.5]dec-3-yl]-acetamide]
